The values below come from paper PMC9721424, “Novel N-methylsulfonyl-indole derivatives: biological activity and COX-2/5-LOX inhibitory effect with improved gastro protective profile and reduced cardio vascular risks” (Journal of Enzyme Inhibition and Medicinal Chemistry, 2022).

“And” between values parts separate entries of the source, which are not always exact repeats. Equal entries are not always repeated. Marks after values point to notes of the source that are not given here.

The subject of series [1] is Salmonella enterica (ATCC 14028). Kind of series: Disc diffusion antimicrobial screening, Salmonella enterica. In kind it is cell-based. Conditions: 100 µg/disc. The procedure: All compounds were screened for their antimicrobial activity at the Microbiology and Immunology Department, Faculty of Pharmacy, Beni-Suef University. The antimicrobial activity screening was carried out using the disc diffusion method, as described earlier, with some adjustments.
For each indicator microbe, a solution of half McFarland turbidity was prepared in sterile saline, followed by surface streaking of the strains on Mueller-Hinton agar with a sterile cotton swab. Then, sterile filter paper discs (5 mm diameter) preloaded with 100 µg of each compound were applied to the surface of the pre-inoculated plates. Then, the plates were chilled at 4 °C for 100 min before being incubated overnight at the proper temperature for microbial growth. Finally, the diameter of the inhibition zones around each disc was measured to evaluate the antimicrobial activity of the compounds. Ciprofloxacin was used as a standard antibacterial agent at a concentration of 20 µg/disc. Furthermore, DMSO-loaded discs were used as a negative control.
For orientation: A growth-free zone around the sample is the usual read-out of agar diffusion tests.

Series [2] is described as follows: DPPH free radical assay. The class given is biochemical. Conditions: 540 nm, 30 min, relative to Trolox. Background: Loss of DPPH colour is used to gauge radical scavenging.
For series [3], the target named is T1, COX-2 (Ovis aries, UniProt P79208).
T1 sequence (P79208 17-603): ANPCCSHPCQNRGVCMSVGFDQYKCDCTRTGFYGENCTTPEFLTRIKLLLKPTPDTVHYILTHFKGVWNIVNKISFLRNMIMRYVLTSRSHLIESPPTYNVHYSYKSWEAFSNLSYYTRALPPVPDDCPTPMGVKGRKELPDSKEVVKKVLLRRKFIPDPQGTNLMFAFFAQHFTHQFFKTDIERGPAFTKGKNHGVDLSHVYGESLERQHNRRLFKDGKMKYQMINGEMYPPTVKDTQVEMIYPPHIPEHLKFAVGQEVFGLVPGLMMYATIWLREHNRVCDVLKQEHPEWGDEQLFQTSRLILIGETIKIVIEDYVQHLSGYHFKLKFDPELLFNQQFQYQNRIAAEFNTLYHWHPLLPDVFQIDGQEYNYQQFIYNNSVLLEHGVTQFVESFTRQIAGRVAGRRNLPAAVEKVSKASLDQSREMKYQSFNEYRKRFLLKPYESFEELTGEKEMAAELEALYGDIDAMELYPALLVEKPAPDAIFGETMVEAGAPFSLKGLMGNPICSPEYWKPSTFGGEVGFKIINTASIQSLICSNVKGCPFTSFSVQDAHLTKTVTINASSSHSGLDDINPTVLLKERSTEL
Kind of series: COX-2 inhibition, enzyme immune assay (EIA) kit. The class given is biochemical, ovine. The conditions noted are these: for S.I (IC50 COX-1/IC50 COX-2): COX-2 selectivity index; for SI: lab report, COX1/COX2.

Series [4] in a line: Dissolution of DPPH samples in DMSO/methanol. The class given is physicochemical. The conditions noted are these: DPPH sample preparation, methanol: DMSO 9:1 v/v. The procedure: Preparation of samples was occurred at the following concentrations: Samples 3a, 4a, 5b, 5d and 5e at final concentrations of 0.5 mg/ml in methanol: DMSO 9:1 v/v. Samples 4b and 4d at final concentrations 0.025 mg/ml in methanol: DMSO 9:1 v/v, sample 5a at final concentrations 0.25 mg/ml in methanol: DMSO 9:1 v/v, Sample 4c, 5c and 4e at final concentrations 0.05 mg/ml in methanol: DMSO 9:1 v/v, sample 3b at final concentration 0.75 mg/ml methanol: DMSO 9:1 v/v. A stock solution of 100 µM concentration of Trolox, a standard used in this experiment, was prepared in methanol from which seven concentrations were prepared, including 50, 40, 30, 20, 15, 10 and 5 µM.

Series [5] concerns heart function biomarkers (LDH, CK-MB, and troponin). Description: Cardiac function biomarkers in rat serum. The class given is in vivo, rats. Conditions: 50 mg/kg/day p.o. for 2 weeks, mean ± SEM. The procedure: (§1) Eighteen rats were divided into three groups at random (6 animals in each group). The first group was given a vehicle and served as normal control. […] Ketamine (100 mg/kg) was used to anaesthetise the animals on the 15th day. Blood samples were obtained from the retro orbital, allowed to clot, centrifuged at 1000 g for 15 min, and utilised to examine heart function biomarkers (LDH, CK-MB, and troponin). The abdomen of each rat was opened, and the heart was extracted and washed in ice-cold physiological saline before being harnessed for histological investigation.

Series [6] relates to heart. Kind of series: Histopathological examination of the heart. In kind it is in vivo. Conditions: rats, two weeks administration, H&E stain. The procedure:
as §1

As to `COc1ccc(NC(=S)N/N=C/c2cn(S(C)(=O)=O)c3ccccc23)cc1` [Compound 4e, (E)-N-(4-Methoxyphenyl)-2{[1-(methylsulfonyl)-1H-indol 3yl]methylene}hydrazinecarbothioamide], the “antibacterial activity against Salmonella enterica” value in series [1] is reported as “selective antibacterial activity”. Besides, the “DPPH test results (µM trolox equivalent/ 1mg sample ± SD)” value in series [2] was 161.21 ± 7.98 µM trolox equivalent/ 1mg sample. Also, in series [3], the “S.I (IC50 COX-1/IC50 COX-2)” value was found to be 30.17 and the SI came to 30.17.

With `Cc1ccc(N2C(=O)CSC2=NN=Cc2cn(S(C)(=O)=O)c3ccccc23)cc1` [Compound 5d], in series [4], the “solubility of sample in DMSO and methanol” value is on record as “didn’t dissolve in DMSO nor in methanol”. In series [3], the “S.I (IC50 COX-1/IC50 COX-2)” value is 8.59 and 8.60; the SI came to 8.596. Besides, in series [5], the CK-MB is listed as 0.315 ± 0.035^a,b ng/ml, the LDH is 536 ± 28^a,b U/L and the “Troponin I” value is reported as 0.0015 ± 0.0005^b ng/ml. In addition, the heart histopathology finding entry in series [6] is on record as “little or no toxic effects on the heart”.
